Data as given in PubChem BioAssay (NCI).
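All cell lines were grown in 96-well plates and treated with compound for 48 hours. GI50 marks 50% less growth. TGI denotes the concentration required for complete inhibition of growth.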

Columns and labels:
Assay in all cases: NCI-60 cell line screen, 48 h
SK-MEL-2 melanoma = system: SK-MEL-2 melanoma
EKVX NSCLC = system: EKVX NSCLC
SF-295 CNS = system: SF-295 CNS
SNB-19 CNS = system: SNB-19 CNS
OVCAR-4 ovarian = system: OVCAR-4 ovarian
SN12C renal = system: SN12C renal
OVCAR-8 ovarian = system: OVCAR-8 ovarian
SR leukemia = system: SR leukemia
NCI-H460 lung = system: NCI-H460 lung
CAKI-1 renal = system: CAKI-1 renal
SK-MEL-5 melanoma = system: SK-MEL-5 melanoma
NCI-H226 lung = system: NCI-H226 lung
TK-10 renal = system: TK-10 renal
HCT-15 colon = system: HCT-15 colon
OVCAR-5 ovarian = system: OVCAR-5 ovarian
NCI-H522 lung = system: NCI-H522 lung
CCRF-CEM leukemia = system: CCRF-CEM leukemia
SF-539 CNS = system: SF-539 CNS
SW-620 colon = system: SW-620 colon
KM12 colon = system: KM12 colon
OVCAR-3 ovarian = system: OVCAR-3 ovarian
U251 CNS = system: U251 CNS
A498 renal = system: A498 renal
LOX IMVI melanoma = system: LOX IMVI melanoma
ACHN renal = system: ACHN renal
MDA-MB-435 = system: MDA-MB-435
MALME-3M melanoma = system: MALME-3M melanoma
K-562 leukemia = system: K-562 leukemia
COLO 205 colon = system: COLO 205 colon
UO-31 renal = system: UO-31 renal
IGROV1 ovarian = system: IGROV1 ovarian
PC-3 prostate = system: PC-3 prostate
UACC-257 melanoma = system: UACC-257 melanoma
HL-60(TB) leukemia = system: HL-60(TB) leukemia
NCI/ADR-RES ovarian = system: NCI/ADR-RES ovarian
M14 melanoma = system: M14 melanoma
SK-MEL-28 melanoma = system: SK-MEL-28 melanoma
HCT-116 colon = system: HCT-116 colon
HCC-2998 colon = system: HCC-2998 colon
RXF 393 renal = system: RXF 393 renal
SNB-75 CNS = system: SNB-75 CNS
MDA-MB-231 breast = system: MDA-MB-231 breast
SK-OV-3 ovarian = system: SK-OV-3 ovarian
A549 NSCLC = system: A549 NSCLC
HS 578T breast = system: HS 578T breast
BT-549 breast = system: BT-549 breast
SF-268 CNS = system: SF-268 CNS
NCI-H23 lung = system: NCI-H23 lung
MOLT-4 leukemia = system: MOLT-4 leukemia
HT29 colon = system: HT29 colon
MCF7 breast = system: MCF7 breast
UACC-62 melanoma = system: UACC-62 melanoma
786-0 renal = system: 786-0 renal
HOP-92 NSCLC = system: HOP-92 NSCLC
DU-145 prostate = system: DU-145 prostate
T-47D breast = system: T-47D breast
HOP-62 NSCLC = system: HOP-62 NSCLC

Q: For `COc1ccc(CNc2c3ccccc3nc3ccc(OC)cc23)cc1`, which GI50 (SK-MEL-2 melanoma) is on record?
A: 2.37 µM

Q: What about the TGI (SK-MEL-2 melanoma) of the same compound?
A: 6.2 µM

Q: And the GI50 (EKVX NSCLC)?
A: 3.15 µM

Q: What about the TGI (EKVX NSCLC) of the same compound?
A: 12.2 µM

Q: What about the GI50 (SF-295 CNS) of the same compound?
A: 1.73 µM

Q: And the TGI (SF-295 CNS)?
A: 4.27 µM

Q: What about the GI50 (SNB-19 CNS) of the same compound?
A: 4.14 µM

Q: And the TGI (SNB-19 CNS)?
A: 16 µM

Q: And the GI50 (OVCAR-4 ovarian)?
A: 2.94 µM

Q: What about the TGI (OVCAR-4 ovarian) of the same compound?
A: 10.5 µM

Q: What about the GI50 (SN12C renal) of the same compound?
A: 3.31 µM

Q: What about the TGI (SN12C renal) of the same compound?
A: 12.6 µM

Q: What about the GI50 (OVCAR-8 ovarian) of the same compound?
A: 3.04 µM

Q: What about the TGI (OVCAR-8 ovarian) of the same compound?
A: 13.5 µM

Q: What about the GI50 (SR leukemia) of the same compound?
A: 1.86 µM

Q: What about the TGI (SR leukemia) of the same compound?
A: 5.81 µM

Q: And the GI50 (NCI-H460 lung)?
A: 2.46 µM

Q: And the TGI (NCI-H460 lung)?
A: 6.41 µM

Q: And the GI50 (CAKI-1 renal)?
A: 1.76 µM

Q: And the TGI (CAKI-1 renal)?
A: 3.72 µM

Q: What about the GI50 (SK-MEL-5 melanoma) of the same compound?
A: 1.95 µM

Q: And the TGI (SK-MEL-5 melanoma)?
A: 3.87 µM

Q: What about the GI50 (NCI-H226 lung) of the same compound?
A: 2.54 µM

Q: What about the TGI (NCI-H226 lung) of the same compound?
A: 9.14 µM

Q: What about the GI50 (TK-10 renal) of the same compound?
A: 3.77 µM

Q: What about the TGI (TK-10 renal) of the same compound?
A: 13.9 µM

Q: What about the GI50 (HCT-15 colon) of the same compound?
A: 2.27 µM

Q: And the TGI (HCT-15 colon)?
A: 6.18 µM

Q: And the GI50 (OVCAR-5 ovarian)?
A: 2.64 µM

Q: And the TGI (OVCAR-5 ovarian)?
A: 9.52 µM

Q: And the GI50 (NCI-H522 lung)?
A: 3.17 µM

Q: And the TGI (NCI-H522 lung)?
A: 14.3 µM

Q: And the GI50 (CCRF-CEM leukemia)?
A: 3.09 µM

Q: What about the TGI (CCRF-CEM leukemia) of the same compound?
A: 13.3 µM

Q: And the GI50 (SF-539 CNS)?
A: 1.96 µM

Q: What about the TGI (SF-539 CNS) of the same compound?
A: 4.13 µM

Q: What about the GI50 (SW-620 colon) of the same compound?
A: 2.08 µM

Q: And the TGI (SW-620 colon)?
A: 7.22 µM

Q: What about the GI50 (KM12 colon) of the same compound?
A: 3.3 µM

Q: What about the TGI (KM12 colon) of the same compound?
A: 12.4 µM

Q: And the GI50 (OVCAR-3 ovarian)?
A: 2.61 µM

Q: And the TGI (OVCAR-3 ovarian)?
A: 8.68 µM

Q: What about the GI50 (U251 CNS) of the same compound?
A: 3.18 µM

Q: What about the TGI (U251 CNS) of the same compound?
A: 11.2 µM

Q: What about the GI50 (A498 renal) of the same compound?
A: 1.69 µM

Q: And the TGI (A498 renal)?
A: 3.33 µM

Q: What about the GI50 (LOX IMVI melanoma) of the same compound?
A: 1.67 µM

Q: What about the TGI (LOX IMVI melanoma) of the same compound?
A: 3.31 µM

Q: And the GI50 (ACHN renal)?
A: 2.72 µM

Q: What about the TGI (ACHN renal) of the same compound?
A: 10.1 µM

Q: What about the GI50 (MDA-MB-435) of the same compound?
A: 1.99 µM

Q: And the TGI (MDA-MB-435)?
A: 6.32 µM

Q: What about the GI50 (MALME-3M melanoma) of the same compound?
A: 1.89 µM

Q: And the TGI (MALME-3M melanoma)?
A: 3.72 µM

Q: And the GI50 (K-562 leukemia)?
A: 2.27 µM

Q: What about the TGI (K-562 leukemia) of the same compound?
A: 11.1 µM

Q: What about the GI50 (COLO 205 colon) of the same compound?
A: 1.76 µM

Q: What about the TGI (COLO 205 colon) of the same compound?
A: 3.99 µM

Q: And the GI50 (UO-31 renal)?
A: 1.93 µM

Q: What about the TGI (UO-31 renal) of the same compound?
A: 9.13 µM

Q: And the GI50 (IGROV1 ovarian)?
A: 3.02 µM

Q: What about the TGI (IGROV1 ovarian) of the same compound?
A: 11.1 µM

Q: And the GI50 (PC-3 prostate)?
A: 2.8 µM

Q: What about the TGI (PC-3 prostate) of the same compound?
A: 11.8 µM

Q: What about the GI50 (UACC-257 melanoma) of the same compound?
A: 2.15 µM

Q: And the TGI (UACC-257 melanoma)?
A: 4.81 µM

Q: What about the GI50 (HL-60(TB) leukemia) of the same compound?
A: 2.15 µM

Q: What about the TGI (HL-60(TB) leukemia) of the same compound?
A: 4.73 µM

Q: What about the GI50 (NCI/ADR-RES ovarian) of the same compound?
A: 2.22 µM

Q: What about the TGI (NCI/ADR-RES ovarian) of the same compound?
A: 7.52 µM

Q: And the GI50 (M14 melanoma)?
A: 1.9 µM

Q: And the TGI (M14 melanoma)?
A: 4.26 µM

Q: What about the GI50 (SK-MEL-28 melanoma) of the same compound?
A: 1.88 µM

Q: What about the TGI (SK-MEL-28 melanoma) of the same compound?
A: 3.68 µM

Q: What about the GI50 (HCT-116 colon) of the same compound?
A: 2.55 µM

Q: And the TGI (HCT-116 colon)?
A: 11.6 µM

Q: What about the GI50 (HCC-2998 colon) of the same compound?
A: 1.85 µM

Q: What about the TGI (HCC-2998 colon) of the same compound?
A: 3.76 µM

Q: What about the GI50 (RXF 393 renal) of the same compound?
A: 1.52 µM

Q: What about the TGI (RXF 393 renal) of the same compound?
A: 3.04 µM

Q: What about the GI50 (SNB-75 CNS) of the same compound?
A: 2.19 µM

Q: What about the TGI (SNB-75 CNS) of the same compound?
A: 8.24 µM

Q: What about the GI50 (MDA-MB-231 breast) of the same compound?
A: 1.9 µM

Q: What about the TGI (MDA-MB-231 breast) of the same compound?
A: 4.69 µM

Q: And the GI50 (SK-OV-3 ovarian)?
A: 4.83 µM

Q: And the TGI (SK-OV-3 ovarian)?
A: 17.2 µM

Q: And the GI50 (A549 NSCLC)?
A: 2.59 µM

Q: What about the TGI (A549 NSCLC) of the same compound?
A: 7.46 µM

Q: What about the GI50 (HS 578T breast) of the same compound?
A: 2.85 µM

Q: What about the TGI (HS 578T breast) of the same compound?
A: 8.68 µM

Q: And the GI50 (BT-549 breast)?
A: 4.25 µM

Q: And the TGI (BT-549 breast)?
A: 15.8 µM

Q: And the GI50 (SF-268 CNS)?
A: 3.75 µM

Q: And the TGI (SF-268 CNS)?
A: 15.2 µM

Q: What about the GI50 (NCI-H23 lung) of the same compound?
A: 1.78 µM

Q: And the TGI (NCI-H23 lung)?
A: 4.71 µM

Q: And the GI50 (MOLT-4 leukemia)?
A: 2.75 µM

Q: And the TGI (MOLT-4 leukemia)?
A: 10.3 µM

Q: What about the GI50 (HT29 colon) of the same compound?
A: 2.11 µM

Q: And the TGI (HT29 colon)?
A: 10.1 µM

Q: What about the GI50 (MCF7 breast) of the same compound?
A: 2.11 µM

Q: And the TGI (MCF7 breast)?
A: 5.71 µM

Q: What about the GI50 (UACC-62 melanoma) of the same compound?
A: 1.79 µM

Q: And the TGI (UACC-62 melanoma)?
A: 3.75 µM

Q: And the GI50 (786-0 renal)?
A: 2.02 µM

Q: What about the TGI (786-0 renal) of the same compound?
A: 4.55 µM

Q: And the GI50 (HOP-92 NSCLC)?
A: 2.17 µM

Q: And the TGI (HOP-92 NSCLC)?
A: 7.69 µM

Q: And the GI50 (DU-145 prostate)?
A: 3.16 µM

Q: What about the TGI (DU-145 prostate) of the same compound?
A: 10.9 µM

Q: And the GI50 (T-47D breast)?
A: 3.54 µM

Q: And the TGI (T-47D breast)?
A: 18.9 µM

Q: And the GI50 (HOP-62 NSCLC)?
A: 3.38 µM

Q: And the TGI (HOP-62 NSCLC)?
A: 15.4 µM
